We go through four compounds from US20110257220A1, “3,11 b-cis-Dihydrotetrabenazine for the Treatment of Schizophrenia and Other Psychoses” (CAMBRIDGE LABORATORIES (IRELAND) LIMITED, priority 2005, published 2011).

The target of test [1] is T1, Dopamine D2L Receptor (Homo sapiens, UniProt P14416).
T1 construct: expressed in transfected cells; host or cells: CHO cells
Nature of the test: Dopamine D2L receptor radioligand binding ([3H] Spiperone). The note with it: 10 μM solution; for inhibition at 10 µM: read-out: Percentage Inhibition of Specific Binding, D2L Receptor. As for the experimental part: (§1) The four dihydrotetrabenazine isomers A, B, C and D were subjected to specific binding assays to test their ability to bind to the receptors and transporter proteins described below. The results are set out in Table 5
(d) Dopamine D2L, Receptor:
• Reference: Bunzo et al., Nature, 336:783-787 (1988) • Source: Human recombinant CHO cells • Ligand: 0.16 nM [3H]

The target in test [2] is T2, Dopamine D1 Receptor (Homo sapiens, UniProt P21728).
T2 construct: expressed in transfected cells; host or cells: CHO cells
Put plainly: Dopamine D1 receptor radioligand binding ([3H] SCH-23390). The settings on record: 10 μM solution; for inhibition at 10 µM: read-out: Percentage Inhibition of Specific Binding, D1 Receptor. As for the experimental part:
as §1
(c) Dopamine D1 Receptor:
• Reference: Dearry et al., Nature, 347:72-76, (1990) • Source: Human recombinant CHO cells • Ligand: 1.4 nM [3H]

Test [3] concerns the target T3, Sigma σ2 Receptor (Rattus norvegicus, UniProt Q5U3Y7).
T3 construct: from tissue; host or cells: Wistar rat brain
T3 sequence (Q5U3Y7 1-176): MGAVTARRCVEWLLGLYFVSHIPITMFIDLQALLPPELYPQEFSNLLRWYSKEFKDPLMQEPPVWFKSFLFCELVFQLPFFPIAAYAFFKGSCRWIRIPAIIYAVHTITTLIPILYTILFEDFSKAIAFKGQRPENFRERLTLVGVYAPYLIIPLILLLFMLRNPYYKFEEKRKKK
Nature of the test: Sigma σ2 receptor radioligand binding ([3H] Ifenprodil). The note with it: 10 μM solution; for inhibition at 10 µM: read-out: Percentage Inhibition of Specific Binding, σ2 Receptor. Details: species or system Wistar rat. As to the method:
as §1
• Reference: Hashimoto et al., Eur. J. Pharmacol., 236:159-163, (1993) • Source: Wistar rat brain • Ligand: 3 nM [3H]

Test [4] concerns Imidazoline I2 (Central) Receptor. Put plainly: Imidazoline I2 (central) receptor radioligand binding ([3H] Idazoxan). The arrangement: species or system Wistar rat. The settings on record: 10 μM solution. As for the experimental part: as §1
(f) Imidazoline I2 (Central) Receptor:
• Reference: Brown et al., Brit. I Pharmacol., 99:803-809, (1990) • Source: Wistar rat cerebral cortex • Ligand: 2 nM [3H] Idazoxan • Vehicle: 1% DMSO • Incubation time/Temp: 30 minutes @ 25° C. • Incubation buffer: 50 mM Tris-HCl, 0.5 mM EDTA, pH 7.4 at 25° C. • Non Specific ligand: 1 μM Idazoxan • Kd: 4 nM • Bmax: 0.14 pmole/mg protein • Specific binding: 85% • Quantitation method: Radioligand binding • Significance criteria: ≧50% of maximum stimulation or inhibition

Test [5] addresses T4, Dopamine D3 Receptor (Homo sapiens, UniProt P35462).
T4 construct: expressed in transfected cells; host or cells: CHO cells
Nature of the test: Dopamine D3 receptor radioligand binding ([3H] Spiperone). The settings on record: 10 μM solution; for inhibition at 10 µM: read-out: Percentage Inhibition of Specific Binding, D3 Receptor. As for the experimental part: as §1
(e) Dopamine D3 Receptor:
• Reference: Sokoloff et al., Nature, 347:146-151, (1990) • Source: Human recombinant CHO cells • Ligand: 0.7 nM [3H]

In test [6] the target is T5, Adrenergic α2B Receptor (Homo sapiens, UniProt P18089).
T5 construct: expressed in transfected cells; host or cells: CHO-K1 cells
T5 sequence (P18089 1-450): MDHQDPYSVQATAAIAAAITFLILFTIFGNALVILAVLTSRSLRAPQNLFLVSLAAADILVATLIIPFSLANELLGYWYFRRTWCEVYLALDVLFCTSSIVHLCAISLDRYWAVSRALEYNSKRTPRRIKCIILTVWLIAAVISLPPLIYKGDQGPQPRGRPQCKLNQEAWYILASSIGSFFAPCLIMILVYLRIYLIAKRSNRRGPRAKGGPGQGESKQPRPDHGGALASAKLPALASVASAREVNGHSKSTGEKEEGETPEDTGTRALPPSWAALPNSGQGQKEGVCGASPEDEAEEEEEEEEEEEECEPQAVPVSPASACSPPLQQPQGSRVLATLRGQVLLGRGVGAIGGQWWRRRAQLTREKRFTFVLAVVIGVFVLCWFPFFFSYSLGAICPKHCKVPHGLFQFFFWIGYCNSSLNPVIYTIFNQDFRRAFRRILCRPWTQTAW
Put plainly: Adrenergic α2B receptor radioligand binding ([3H] Rauwolscine). The note with it: 10 μM solution; for inhibition at 10 µM: read-out: Percentage Inhibition of Specific Binding, α2B Receptor. As for the experimental part:
as §1
(b) Adrenergic α2B Receptor:
• Reference: S. Uhlen et al., Eur. I Pharmacol., 33 (1): 93-1-1 (1998) • Source: Human recombinant CHO-K1 cells • Ligand: 2.5 nM [3H]

Test [7] concerns the target T6, Serotonin (5-hydroxytryptamine) 5-HT6 Receptor (Homo sapiens, UniProt P50406).
T6 construct: expressed in transfected cells; host or cells: HeLa cells
Put plainly: 5-HT6 receptor radioligand binding ([3H] LSD). The note with it: 10 μM solution; for inhibition at 10 µM: read-out: Percentage Inhibition of Specific Binding, 5-HT6 receptor.
Description: as §1

Test [8] addresses T7, Dopamine Transporter (DAT) (Homo sapiens, UniProt Q01959).
T7 construct: expressed in transfected cells; host or cells: CHO cells
Nature of the test: Dopamine transporter radioligand binding ([125I] RTI-55). The note with it: 10 μM solution; for inhibition at 10 µM: read-out: Percentage Inhibition of Specific Binding, DAT. As to the method: as §1
(j) Dopamine Transporter (DAT):
• Reference: Giros et al., Trends Pharmacol. Sci., 14, 43-49 (1993) Gu et al., J. Biol. Chem., 269(10):7124-7130 (1994) • Source: Human recombinant CHO cells • Ligand: 0.15 nM [^125I]

For test [9], the target named is T8, Sigma σ1 Receptor (Homo sapiens, UniProt Q99720).
T8 construct: endogenous in cells; host or cells: Jurkat cells
Put plainly: Sigma σ1 receptor radioligand binding ([3H] Haloperidol). The settings on record: 10 μM solution; for inhibition at 10 µM: read-out: Percentage Inhibition of Specific Binding, σ1 Receptor. As for the experimental part: as §1
• Reference: Ganaphthy et al., Pharmacol. Exp. Ther., 289:251-260, (1999) • Source: Human jurkat cells • Ligand: 8 nM [3H]

The target in test [10] is T9, Serotonin Transporter (SERT) (Homo sapiens, UniProt P31645).
T9 construct: expressed in transfected cells; host or cells: HEK-293 cells
Put plainly: Serotonin transporter radioligand binding ([125I] RTI-55). The note with it: for inhibition at 10 µM: read-out: Percentage Inhibition of Specific Binding, SERT. As for the experimental part:
as §1
(i) Serotonin Transporter (SERT):
• Reference: Gu et al., J. Biol. Chem., 269(10):7124-7130, (1994) • Source: Human recombinant HEK-293 cells • Ligand: 0.15 nM [125I] RTI-55 • Vehicle: 1% DMSO • Incubation time/Temp: 3 hours @ 4° C. • Incubation buffer: 100 mM NaCl, 50 mM Tris HCl, 1 μM Leupeptin, 10 μM PMSF, pH 7.4 • Non Specific ligand: 10 μM Imipramine • Kd: 0.17 nM • Bmax: 0.41 pmole/mg protein • Specific binding: 95% • Quantitation method: Radioligand binding • Significance criteria: ≧50% of maximum stimulation or inhibition

The target of test [11] is T10, Serotonin (5-hydroxytryptamine) 5-HT2b Receptor (Homo sapiens, UniProt P41595).
T10 construct: expressed in transfected cells; host or cells: CHO-K1 cells
Nature of the test: 5-HT2b receptor radioligand binding ([3H] LSD). The note with it: 10 μM solution; for inhibition at 10 µM: read-out: Percentage Inhibition of Specific Binding, 5-HT2b receptor.

Usually inhibition stands for the change of the read-out against control, counted positive when it falls. One may read the IC50 as the point on the concentration scale where inhibition reaches its midpoint.

T8 sequence (Q99720 whole entry): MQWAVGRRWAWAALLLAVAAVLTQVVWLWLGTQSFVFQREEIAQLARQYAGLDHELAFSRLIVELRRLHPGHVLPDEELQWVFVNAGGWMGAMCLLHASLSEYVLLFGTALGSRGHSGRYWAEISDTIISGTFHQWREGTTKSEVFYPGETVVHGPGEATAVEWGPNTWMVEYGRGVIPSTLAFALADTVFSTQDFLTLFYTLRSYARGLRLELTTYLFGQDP
T6 sequence (P50406 whole entry): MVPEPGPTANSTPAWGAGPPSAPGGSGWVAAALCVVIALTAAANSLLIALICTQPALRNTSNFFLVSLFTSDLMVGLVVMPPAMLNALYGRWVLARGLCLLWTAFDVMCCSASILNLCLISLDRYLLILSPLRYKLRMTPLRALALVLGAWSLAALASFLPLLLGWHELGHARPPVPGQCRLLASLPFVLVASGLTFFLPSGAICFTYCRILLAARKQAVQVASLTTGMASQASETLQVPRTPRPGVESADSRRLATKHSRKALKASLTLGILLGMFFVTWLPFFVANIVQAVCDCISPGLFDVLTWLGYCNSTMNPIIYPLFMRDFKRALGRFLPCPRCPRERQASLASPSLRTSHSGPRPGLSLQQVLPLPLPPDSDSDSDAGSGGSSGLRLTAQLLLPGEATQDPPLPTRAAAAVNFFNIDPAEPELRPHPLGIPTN
T9 sequence (P31645 whole entry): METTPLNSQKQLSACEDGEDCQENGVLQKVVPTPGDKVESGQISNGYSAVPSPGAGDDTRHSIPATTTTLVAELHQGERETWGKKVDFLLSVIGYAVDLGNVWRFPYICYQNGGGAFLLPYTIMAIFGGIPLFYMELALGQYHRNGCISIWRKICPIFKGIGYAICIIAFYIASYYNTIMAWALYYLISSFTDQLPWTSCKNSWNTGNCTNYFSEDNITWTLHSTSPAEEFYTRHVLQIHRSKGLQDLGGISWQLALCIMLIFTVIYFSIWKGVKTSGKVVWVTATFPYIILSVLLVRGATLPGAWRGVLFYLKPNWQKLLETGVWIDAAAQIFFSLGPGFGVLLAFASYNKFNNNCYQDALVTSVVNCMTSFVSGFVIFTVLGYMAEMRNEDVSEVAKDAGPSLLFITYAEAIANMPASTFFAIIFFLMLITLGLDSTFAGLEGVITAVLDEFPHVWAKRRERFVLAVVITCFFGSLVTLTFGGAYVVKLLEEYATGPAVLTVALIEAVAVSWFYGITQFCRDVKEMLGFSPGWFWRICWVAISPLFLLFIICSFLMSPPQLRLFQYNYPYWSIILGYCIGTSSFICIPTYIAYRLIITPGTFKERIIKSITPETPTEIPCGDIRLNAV
T2 sequence (P21728 whole entry): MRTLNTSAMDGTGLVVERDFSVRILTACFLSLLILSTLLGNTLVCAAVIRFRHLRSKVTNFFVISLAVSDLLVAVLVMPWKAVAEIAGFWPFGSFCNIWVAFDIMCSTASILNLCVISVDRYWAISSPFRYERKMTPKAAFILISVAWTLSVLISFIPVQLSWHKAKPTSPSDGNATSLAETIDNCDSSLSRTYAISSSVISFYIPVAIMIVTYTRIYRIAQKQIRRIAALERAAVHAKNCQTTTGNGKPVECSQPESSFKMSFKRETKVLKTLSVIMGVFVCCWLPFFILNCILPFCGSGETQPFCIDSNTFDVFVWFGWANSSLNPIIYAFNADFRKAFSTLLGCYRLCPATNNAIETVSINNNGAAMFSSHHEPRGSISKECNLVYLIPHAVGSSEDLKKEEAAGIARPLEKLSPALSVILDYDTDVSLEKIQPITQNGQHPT
T7 sequence (Q01959 whole entry): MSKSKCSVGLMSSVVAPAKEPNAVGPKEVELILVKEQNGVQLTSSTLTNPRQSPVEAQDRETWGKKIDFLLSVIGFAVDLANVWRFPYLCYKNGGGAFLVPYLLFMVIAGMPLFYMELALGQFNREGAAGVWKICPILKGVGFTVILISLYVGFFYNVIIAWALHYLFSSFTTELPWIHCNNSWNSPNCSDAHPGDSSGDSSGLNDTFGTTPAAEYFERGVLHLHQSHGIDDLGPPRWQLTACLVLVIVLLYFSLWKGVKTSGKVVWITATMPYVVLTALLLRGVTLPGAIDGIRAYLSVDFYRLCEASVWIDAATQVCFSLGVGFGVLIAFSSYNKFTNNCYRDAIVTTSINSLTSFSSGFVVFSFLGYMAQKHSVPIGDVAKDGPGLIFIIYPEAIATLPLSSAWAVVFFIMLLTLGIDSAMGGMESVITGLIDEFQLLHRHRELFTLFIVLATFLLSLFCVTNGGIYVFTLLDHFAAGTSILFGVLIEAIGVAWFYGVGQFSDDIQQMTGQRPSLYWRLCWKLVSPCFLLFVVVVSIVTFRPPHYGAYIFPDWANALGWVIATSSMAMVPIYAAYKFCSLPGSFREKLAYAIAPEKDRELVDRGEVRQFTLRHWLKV
T10 sequence (P41595 whole entry): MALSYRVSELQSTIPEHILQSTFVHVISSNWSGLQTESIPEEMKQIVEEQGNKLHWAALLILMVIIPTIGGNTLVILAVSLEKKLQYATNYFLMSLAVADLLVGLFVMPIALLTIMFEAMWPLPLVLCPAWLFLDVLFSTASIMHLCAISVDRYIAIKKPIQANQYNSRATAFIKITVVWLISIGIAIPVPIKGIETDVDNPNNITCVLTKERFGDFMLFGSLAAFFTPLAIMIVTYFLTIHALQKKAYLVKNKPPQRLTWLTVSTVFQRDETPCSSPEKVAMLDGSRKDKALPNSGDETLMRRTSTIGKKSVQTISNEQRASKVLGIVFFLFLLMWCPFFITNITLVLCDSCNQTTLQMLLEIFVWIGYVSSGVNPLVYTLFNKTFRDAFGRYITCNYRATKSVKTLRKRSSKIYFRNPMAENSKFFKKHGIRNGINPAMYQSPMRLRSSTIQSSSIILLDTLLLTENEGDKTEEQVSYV
T1 sequence (P14416 whole entry): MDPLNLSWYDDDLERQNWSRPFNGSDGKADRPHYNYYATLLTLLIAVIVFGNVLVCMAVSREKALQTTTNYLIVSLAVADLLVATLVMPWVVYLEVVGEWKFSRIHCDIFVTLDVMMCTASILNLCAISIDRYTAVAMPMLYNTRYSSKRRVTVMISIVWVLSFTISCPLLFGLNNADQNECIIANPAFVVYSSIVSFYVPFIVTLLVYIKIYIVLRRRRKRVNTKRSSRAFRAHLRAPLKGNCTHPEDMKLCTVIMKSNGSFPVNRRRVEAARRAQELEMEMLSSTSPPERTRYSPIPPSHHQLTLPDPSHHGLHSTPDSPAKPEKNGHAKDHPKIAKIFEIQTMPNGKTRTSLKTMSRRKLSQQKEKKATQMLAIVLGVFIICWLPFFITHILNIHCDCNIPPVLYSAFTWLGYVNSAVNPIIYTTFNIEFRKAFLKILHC
T4 sequence (P35462 whole entry): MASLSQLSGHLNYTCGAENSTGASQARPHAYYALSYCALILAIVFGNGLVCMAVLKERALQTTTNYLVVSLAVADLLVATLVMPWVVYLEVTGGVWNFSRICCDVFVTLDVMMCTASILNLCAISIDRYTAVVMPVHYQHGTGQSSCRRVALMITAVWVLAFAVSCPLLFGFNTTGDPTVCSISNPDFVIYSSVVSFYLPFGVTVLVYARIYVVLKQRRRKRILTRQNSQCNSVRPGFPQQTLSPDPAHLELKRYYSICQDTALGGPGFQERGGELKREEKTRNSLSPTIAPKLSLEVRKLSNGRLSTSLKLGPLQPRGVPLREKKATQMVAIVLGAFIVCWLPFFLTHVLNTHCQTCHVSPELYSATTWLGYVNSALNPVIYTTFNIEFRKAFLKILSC

On to `COc1cc2c(cc1OC)[C@@H]1C[C@@H](O)[C@H](CC(C)C)CN1CC2` (single isomer, unassigned) [Isomer A], for which the inhibition at 10 µM was found to be 87% in test [1]; 78% in test [2]; 64% in test [3]; 69% in test [5]; 44% in [6]; 51% in [7]. Also, the inhibition at 10 µM was 3% in test [8], 48% in [9], 19% in test [10] (10 μM solution) and 74% in test [11]. Moreover, the “Percentage Inhibition of Specific Binding, I2 Receptor” value (“Percentage Inhibition … I2 Receptor” for short) in test [4] stood at 74%.
Take `COc1cc2c(cc1OC)[C@H]1C[C@H](O)[C@@H](CC(C)C)CN1CC2` (single isomer, unassigned) [Isomer B]: the inhibition at 10 µM in test [1] worked out at 16%; in [2], 1%; in test [3], 64%; in test [5] it was 7%; in [6], 14%; in test [7] it was 10%. Also, the inhibition at 10 µM came out at 4% in [8], 82% in test [9], 86% in test [10] (10 μM solution) and 10% in test [11]. Also, the “Percentage Inhibition … I2 Receptor” value in test [4] worked out at 8%.
In the case of `COc1cc2c(cc1OC)C1CC(O)C(CC(C)C)CN1CC2` (single isomer, unassigned) [Isomer C], the inhibition at 10 µM in [1] is -14%; in [2], 6%; in test [3], 61%; in test [5] it was 9%; in [6], -7%; in test [7], 10%. The inhibition at 10 µM in test [8] was -2%; in test [9] it was 59%; in test [10] (10 μM solution) it was 77%; in [11], 14%. Also, the “Percentage Inhibition … I2 Receptor” value in test [4] turned out to be 0%. For the same compound, the IC50 in test [10] (value in parentheses, unit inferred) is 2750 nM.
In the case of `COc1cc2c(cc1OC)[C@H]1C[C@@H](O)[C@H](CC(C)C)CN1CC2` (single isomer, unassigned; isomer d) [Isomer D], the “Percentage Inhibition of Specific Binding, D2L Receptor” value in test [1] amounted to 58%. In addition, the “Percentage Inhibition of Specific Binding, D1 Receptor” value in test [2] was 38%. In test [3], the “Percentage Inhibition of Specific Binding, σ2 Receptor” value came out at 69%. In [4], the “Percentage Inhibition … I2 Receptor” value is given as 55%. Moreover, the “Percentage Inhibition of Specific Binding, D3 Receptor” value in test [5] is 63%. In addition, the “Percentage Inhibition of Specific Binding, α2B Receptor” value in test [6] came out at 50%. Moreover, the “Percentage Inhibition of Specific Binding, 5-HT6 receptor” value in [7] is 41%. Moreover, in test [8], the “Percentage Inhibition of Specific Binding, DAT” value worked out at 2%. In [9], the “Percentage Inhibition of Specific Binding, σ1 Receptor” value came to 82%. The “Percentage Inhibition of Specific Binding, SERT” value in test [10] (10 μM solution) was found to be 8%. Besides, the “Percentage Inhibition of Specific Binding, 5-HT2b receptor” value in test [11] is 43%.
